# Data taken from patent publication US20230181632A1 (CHEMAS CO., LTD., priority 2020, published 2023).
# Read-outs that look alike come from different tables or passages of the source.
# Key:
# SARS-CoV-2 = format: cell-based
# [1] = tested on: SARS-CoV-2-infected Vero E6 cells; format: cell-based, African green monkey; conditions: 2,000-fold diluted, 36 or 72 hours
# Vero E6 cells [2] = experiment: MTT cytotoxicity assay; format: cell-based, African green monkey; conditions: 48 hours
# Description: Vero E6 cells, which are derived from kidney cells extracted from an African green monkey, were seeded at a density of 1×10^4 cells/well into 96-well plates and incubated overnight in DMEM (Dulbecco's modified Eagle's medium) supplemented with glucose, 10% FBS (fetal bovine serum), 1% PS (penicillin+streptomycin), 1% L-glutamine 200 mM, 1% sodium pyruvate 100 mM, and nonessential amino acids before being washed with a PBS buffer.
# Cytotoxicity was examined through an MTT assay. The MTT assay is a colorimetric assay for assessing cytotoxicity or viability by taking advantage of the mitochondrial ability to convert the yellow water-soluble substrate MTT tetrazolium into purple insoluble formazan product […] by the action of oxidoreductase enzymes present in mitochondria of living cells.
# The cultured Vero E6 cells were seeded into 96-well plates. A 1% (w/v) solution of tetraarsenic hexoxide (As4O6) in distilled water was 1,000- to 20,000-fold diluted (As4O6 25.27 μM-1.26 μM) in DMEM and each of the dilutions was applied to the 96-well plates in duplicate, followed by incubation for 48 hours. […] Incubation at room temperature for 15 minutes made the formazan crystals completely dissolved, followed by reading absorbance at 570 nm (A570 nm) on a microplate.
# Vero E6 cells [3] = format: cell-based, African green monkey; conditions: same RNA samples as transcriptomic assay, normalized to 18s rRNA
# [4] = […], 3,000-fold diluted (8.42 μM), 3 days, Vero E6
# [5] = […], 4,000-fold diluted (6.32 μM), 3 days, Vero E6
smiles,measurement,setting,value
O1[As]2O[As]3O[As]1O[As](O2)O3 [tetraarsenic hexoxide],% Inhibition of CPE,SARS-CoV-2,100%
same,% Inhibition of CPE (cytopathic effect),SARS-CoV-2,100%
same,% Inhibition of CPE,SARS-CoV-2; [4],87.5% (7/8well)
same,% Inhibition of CPE (cytopathic effect),SARS-CoV-2; [4],37.5% (3/8well)
same,% Inhibition of CPE,SARS-CoV-2; [5],87.5% (7/8well)
same,% Inhibition of CPE (cytopathic effect),SARS-CoV-2; [5],37.5% (3/8well)
same,inhibition against viral growth,"SARS-CoV-2; […], across tested dilutions",87-100%
same,"expression of the cytokine genes CSF1, PDGFA, PDGFB, CXCL1, CXCL2, CXCL3, CXCL8, CXCL10, CCL2, and CCL20 (transcriptome)",[1],remarkably downregulated
same,expression of the gene ZFAND2A (transcriptome),[1],increased
same,"expression of the genes BAGS, HSPA1B, CRYAB, HMOX1, and HSPH1 (transcriptome)",[1],upregulated
same,Cytotoxicity (MTT),"Vero E6 cells [2]; 1% (w/v) solution, 2,000-fold or greater dilutions",the cells survived and did not undergo cell death
same,Cytotoxicity (MTT),"Vero E6 cells [2]; 1% (w/v) solution, up to 1,000-fold dilution (25.27 μM)",exhibited cytotoxicity leading to cell death
same,"expression of the genes BAG3, CRYAB, HSPH1, HMOX1 and ZFAND2A (RT-PCR)",Vero E6 cells [3],upregulated expressions
